Measurements from paper PMC3160846 (PLoS ONE, 2011).
“And” between values parts separate entries of the source, which are not always exact repeats. Equal values may be shown once.

Key:
cMET = target: T1, cMET (Homo sapiens, UniProt P08581); experiment: Kinase inhibition assay, cMET; format: biochemical
T1 construct: GST-tagged c-Met (residues K956-S1390) containing kinase domain; GST; made in house; host or cells: Sf9 insect cells
Protocol: c-Met – The recombinant GST-tagged c-Met (residues K956-S1390) containing kinase domain was expressed in Sf9 insect cells. The kinase assay was carried out in 96-well plates with the tested compound at 30°C for 120 min.
(§1) Composition of the reaction buffers used in different kinase inhibitory assays is described in Figure S3.
25 mM HEPES pH 7.4, 10mM MgCl2, 4 mM MnCl2, 0.5mM Na3VO4, 2 mM DTT, 0.02% Triton X100, 0.01% BSA, 1 mM ATP, 2 mM polyGlu4:Tyr peptide, 75 ng recombinant Met.

VEGFR1 = target: T2, VEGFR1 (Homo sapiens, UniProt P17948); experiment: Kinase inhibition assay, VEGFR1; format: biochemical
T2 construct: GST-tagged VEGFR1 (residues R781-I1338); GST; made in house; host or cells: Sf9 insect cells
Protocol: (§2) VEGFR1/2 – The recombinant GST-tagged VEGFR1 (residues R781-I1338) or VEGFR2 (residues V789-V1356) containing kinase domain were expressed in Sf9 insect cells. The kinase assay was carried out in 96-well plates with the tested compound at 30°C for 120 min.
as §1
(§3) 25 mM HEPES pH 7.4, 10 mM MgCl2, 4mM MnCl2, 0.5mM Na3VO4, 2 mM DTT, 0.02% Triton X100, 0.01% BSA, 1 mM ATP, 2 mM polyGlu4:Tyr peptide, 50~100 ng recombinant VEGFR1 or VEGFR2.

VEGFR2 = target: T3, VEGFR2 (Homo sapiens, UniProt P35968); experiment: Kinase inhibition assay, VEGFR2; format: biochemical
T3 construct: VEGFR2 (residues V789-V1356) containing kinase domain; GST; made in house; host or cells: Sf9 insect cells
Protocol: as §2, §1, §3

KB-S15 cells = experiment: Clonogenic assay, KB-S15; format: cell-based, Human
Protocol: (§4) Human lung adenocarcinoma A549 cells and NTUB1 bladder cancer cells were maintained in RPMI supplied with 10% fetal bovine serum. […] KB-derived MRP1-expressing cell line, KB-7D, was maintained in growth medium supplemented with 7 µM VP-16.
Two hundred cells in logarithmic growth phase were seeded in a 6-well plate. The cells were exposed to various concentrations of the test drugs for a three-generation period. At the end of the incubation period, cells were fixed and stained with 50% ethanol containing 0.5% methylene blue for 30 min. The plates were washed five times with water and allowed to air-dry. Colonies were countered manually. […] Each value represents the average of at least three independent experiments run in triplicates.

KB-7D cells = experiment: Clonogenic assay, KB-7D; format: cell-based; conditions: Homo sapiens, KB7D, VP-16 resistant, MRP1 ↑, read-out: IC50, anti-proliferative activity
Protocol: as §4, with “serum. KB-derived MDR1-expressing cell lines (i.e. KB-VIN10 and KB-S15) and NTUB1-dervided MDR1-expressing cell line (i.e. NTU0.017) were maintained in growth medium supplemented with 10 nM vincristine, 15 nM and 17 nM paclitaxel respectively.” for “serum.”
Two hundred cells in logarithmic growth phase were seeded in a 6-well plate. The cells were exposed to various concentrations of the test drugs for a three-generation period. At the end of the incubation period, cells were fixed and stained with 50% ethanol containing 0.5% methylene blue for 30 min. The plates were washed five times with water and allowed to air-dry. Colonies were countered manually. The IC50 value resulting from 50% inhibition of cell growth was calculated graphically as a comparison with the growth of the control group. Each value represents the average of at least three independent experiments run in triplicates.

HONE-1 cells = experiment: Caspase-3/-7 activity imaging, HONE-1; format: cell-based, Human; conditions: HONE-1, 60 h
Protocol: Caspase-3/-7 activity was analyzed with the MagicRed™ DEVD real-time caspase activity detection kit (catalog number #935, Immunochemistry Technologies LLC, Bloomington, MN). Briefly, cells were cultured in chamber-slides and incubated with test agents for various durations. Cells were then incubated with the Caspase-3/-7 substrate MR-(DEVD2) in culture medium for 1 hour, and then co-incubated with Hoechst 33342 for 15 min. Cells were viewed with a UV-enabled inverted-microscope at an excitation wavelength of 540 nm–560 nm and emission at 610 nm. Experiments were repeated independently at least two times.

[1] = Pharmacokinetic study in rats; format: in vivo; conditions: 5 mg/kg i.v.
Protocol: Male Sprague-Dawley rats weighing 300–400 g each (8–12 weeks old) were obtained from BioLASCO, Taiwan Co., Ltd., Ilan, Taiwan. Animals were surgically prepared with a jugular-vein cannula one day prior to dosing and fasted overnight (∼18–20 h) prior to dosing. Water was available ad libitum throughout the experiment. Single 5 mg/kg dose of BPR1K653, as a DMA/PEG (20/80, v/v) solution, was separately administered to groups of 3 rats each intravenously by a bolus injection via the jugular-vein cannula. At 0 (prior to dosing), 2, 5, 15 and 30 min, and at 1, 2, 4, 6, 8 and 24 h after dosing, a blood sample (0.15 mL) was collected from each animal via the jugular-vein cannula and stored in ice (0–4°C). Plasma was separated from the blood by centrifugation (14,000 g for 15 min at 4°C in a Beckman Model Allegra™ 6R centrifuge) and stored in a freezer (−20°C). All samples were analyzed for the parent drug by LC-MS/MS. LC/MS/MS conditions: The chromatographic system consisted of an Agilent 1200 series LC system and an Agilent ZORBAX Eclipse XDB-C8 column (5 µm, 3.0×150 mm) was connected to a MDS Sciex API3000 tandem mass spectrometer, which was equipped with a Turbo V™ ESI in the positive scanning mode at 600°C. Data was acquired via the multiple reactions monitoring (MRM) system. The MS/MS ion transitions were monitored at m/z of 541.4/106.4 for BPR1K653. The collision energy of 58.0 V was used for the analyst, BPR1K653. A gradient HPLC method was employed for the separation. Mobile phase A consisted of water containing 0.1% formic acid, and mobile phase B consisted of acetonitrile. The gradient profile was shown as follows (min/%B): 0.0–1.2/5, 1.3–3.9/95, 4.0–5.0/5. The flow rate was set to be 1.5 mL/min. The auto-sampler was programmed to inject 15 µL sample aliquots in every 5 min. The retention time of BPR1K653 was 2.39 min. Plasma concentration data were analyzed with non-compartmental method.

T2 sequence (P17948 781-1338): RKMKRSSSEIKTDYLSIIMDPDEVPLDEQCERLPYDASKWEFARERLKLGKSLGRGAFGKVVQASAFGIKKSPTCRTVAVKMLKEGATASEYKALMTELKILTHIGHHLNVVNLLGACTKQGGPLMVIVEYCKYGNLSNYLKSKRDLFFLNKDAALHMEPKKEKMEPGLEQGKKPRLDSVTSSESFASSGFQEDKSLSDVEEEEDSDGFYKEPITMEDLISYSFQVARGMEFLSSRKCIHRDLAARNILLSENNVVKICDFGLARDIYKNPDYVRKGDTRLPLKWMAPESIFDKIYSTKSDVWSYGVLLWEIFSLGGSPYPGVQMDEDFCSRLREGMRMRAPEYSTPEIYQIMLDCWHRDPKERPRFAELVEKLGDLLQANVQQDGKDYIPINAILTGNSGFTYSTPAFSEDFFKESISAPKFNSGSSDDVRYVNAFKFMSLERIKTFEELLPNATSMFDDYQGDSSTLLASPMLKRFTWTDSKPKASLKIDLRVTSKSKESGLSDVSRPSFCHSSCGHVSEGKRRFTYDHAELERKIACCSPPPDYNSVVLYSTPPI
T1 sequence (P08581 956-1390): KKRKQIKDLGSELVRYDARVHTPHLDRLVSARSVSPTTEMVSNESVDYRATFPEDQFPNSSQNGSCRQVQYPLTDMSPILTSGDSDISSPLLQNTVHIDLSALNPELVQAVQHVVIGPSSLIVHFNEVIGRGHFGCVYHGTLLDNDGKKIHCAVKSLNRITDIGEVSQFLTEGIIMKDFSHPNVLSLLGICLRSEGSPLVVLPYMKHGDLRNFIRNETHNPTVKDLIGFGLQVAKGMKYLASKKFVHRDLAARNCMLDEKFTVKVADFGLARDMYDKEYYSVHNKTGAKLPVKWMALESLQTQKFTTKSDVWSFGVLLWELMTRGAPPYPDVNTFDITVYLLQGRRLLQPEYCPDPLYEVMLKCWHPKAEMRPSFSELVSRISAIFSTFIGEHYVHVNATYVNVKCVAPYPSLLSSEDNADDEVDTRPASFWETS
T3 sequence (P35968 789-1356): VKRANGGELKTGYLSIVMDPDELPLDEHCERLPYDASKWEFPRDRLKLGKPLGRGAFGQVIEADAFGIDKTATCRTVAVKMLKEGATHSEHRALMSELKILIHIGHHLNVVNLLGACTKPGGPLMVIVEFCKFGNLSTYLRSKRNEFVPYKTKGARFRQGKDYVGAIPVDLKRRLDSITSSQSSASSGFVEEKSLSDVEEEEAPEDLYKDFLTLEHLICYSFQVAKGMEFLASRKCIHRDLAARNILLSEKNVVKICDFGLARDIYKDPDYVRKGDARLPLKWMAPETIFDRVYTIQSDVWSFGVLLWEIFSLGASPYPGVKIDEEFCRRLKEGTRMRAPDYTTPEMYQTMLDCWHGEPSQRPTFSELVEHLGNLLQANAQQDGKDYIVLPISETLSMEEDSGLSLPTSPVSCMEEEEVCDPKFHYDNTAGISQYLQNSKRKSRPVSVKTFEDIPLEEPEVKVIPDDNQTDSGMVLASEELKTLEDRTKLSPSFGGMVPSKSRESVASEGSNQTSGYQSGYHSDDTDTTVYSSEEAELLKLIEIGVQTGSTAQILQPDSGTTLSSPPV

- IC50 (cMET): > 10000 nM
- IC50 (VEGFR1): > 10000 nM
- IC50 (VEGFR2): > 10000 nM
- IC50 (KB-S15 cells; Homo sapiens, KB-S15, paclitaxol resistant, MDR1 ↑, read-out: IC50, anti-proliferative activity): 11 ± 4 nM
- IC50 (KB-7D cells): 19 nM
- maximum plasma concentration above the in vitro kinase inhibition IC50 of Aurora-A [1]: more than 80 fold
- maximum plasma concentration above the in vitro kinase inhibition IC50 of Aurora-B [1]: > 200 fold
- maximum plasma concentration ([1]; at 2 min after dosing, 5 mg/kg): 10 µM and 5463 ng/mL
- AUC(0-inf) ([1]; male, Sprague-Dawley, rat, plasma, iv, read-out: Area under the curve (AUC(0-inf))): 1750 ng·h/mL
- half-life ([1]; male, Sprague-Dawley, rat, plasma, iv, read-out: Plasma half life (t1/2) (converted)): 3.9 h
- clearance ([1]; male, Sprague-Dawley, rat, plasma, iv, read-out: Total body clearance (CL)): 49.3 mL/min/kg
- Vd ([1]; male, Sprague-Dawley, rat, plasma, iv, read-out: Volume of distribution at the steady state (Vss)): 10.6 ± 5.1 L/kg
- concentration at 24 h ([1]; male, Sprague-Dawley, rat, plasma, iv, 5 mg/kg, read-out: estimated plasma concentration 24 h after dosing): 3.9 nM and 2.1 ng/mL
Compound: CN(C)Cc1ccccc1NC(=O)Nc1ccc(CCNc2ncnc3oc(-c4ccccc4)c(Cl)c23)cc1 [BPR1K653]
- Fold difference as compare to the IC50 in the respective parental cells (KB-S15 cells; KB-S15 vs KB): 1 fold
- apoptosis, caspase-3/-7 activity (HONE-1 cells): induced apoptosis
